# Results: patent US20060008891A1, “Cathepsin G-related peptides as modulators of formylpeptide receptors (FPR)” (The Government of USA as repersented by the Secretary, …, priority 2004, published 2006)
# Where “and” joins values, the source holds several entries; their conditions need not be identical. Equal entries are not always repeated.
# Assays:
# [1] = test system: monocytes; experiment: Chemotaxis assay, monocytes; type: cell-based, human
# Description: Human PBMC were isolated from leukopacks obtained through the courtesy of Transfusion Medicine Department, National Institutes of Health Clinical Center (Bethesda, Md.) by Ficoll-Hypaque density gradient centrifugation. Monocytes were purified from human PBMC by Percoll gradient to yield>90% pure preparations. […] H. Ali and R. Snyderman, Duke University (Durham, N.C.) and maintained in the presence of 0.8 mg/ml geneticin (G418, Life Technologies, Rockville, Md.) in DMEM supplemented with 10% FCS. B. Chemotaxis assay Migration of phagocytes and ETFR cells was assessed using a 48-well microchemotaxis chamber (Neuroprobe, Cabin John, Md.) as previously described (Hu et al. (2001) J Leukoc Biol 70 15512). Briefly, different concentrations of stimulants were placed in the wells of the lower compartment of the chamber, and 50 μl cells (1.5×10^6 cells/ml for monocyte and neutrophil, 1×10^6 ETFR cells/ml) were added to the wells of the upper compartment. The lower and upper compartments were separated by either a 5-μm (for monocyte) or a 10-μm pore size, collagen-coated (for ETFR cells) polycarbonate filter (Osmonics, Livermore, Calif.). After incubation at 37° C. in humidified air with 5% CO2 (60 min for neutrophils, 90 min for monocytes, 4.5 h for ETFR cells), the filter was removed and stained, and the cells migrating across the filter were counted with light microscopy. The results are presented as the mean number of cells (±SD) in three high power fields (HPFs). […] After thorough washing with cold medium (RPMI 1640, 1% BSA), the cells were resuspended and assayed. To measure the effect of various signaling inhibitors, unless otherwise indicated, the cells were pre-incubated at 37° C. for 60 min with the inhibitors, and were then added to the upper wells of the chemotaxis chamber.
# [2] = target: T1, FPR (Homo sapiens, UniProt P21462); experiment: FPR cell surface expression (FACS), ETFR cells and monocytes; type: cell-based; conditions: 5 μg/ml CaG or 1 μM fMLF, 37° C. 30 min
# T1 construct: expressed in transfected cells; host or cells: Rat basophilic leukemia (RBL) cells, stably transfected (ETFR cells); gift of H. Ali and R. Snyderman, Duke University
# T1 sequence (P21462 1-350): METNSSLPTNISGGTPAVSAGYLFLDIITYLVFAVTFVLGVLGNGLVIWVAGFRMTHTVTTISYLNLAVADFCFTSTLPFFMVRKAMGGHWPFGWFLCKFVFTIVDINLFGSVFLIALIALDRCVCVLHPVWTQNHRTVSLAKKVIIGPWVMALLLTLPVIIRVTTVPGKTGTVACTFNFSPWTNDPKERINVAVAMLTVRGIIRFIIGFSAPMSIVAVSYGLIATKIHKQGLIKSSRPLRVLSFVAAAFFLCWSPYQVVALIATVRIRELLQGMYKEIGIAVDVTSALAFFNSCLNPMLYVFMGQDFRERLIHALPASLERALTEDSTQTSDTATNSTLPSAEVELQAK
# Description: Cell surface expression of FPR was monitored by a flow cytometer (FACS). Monocytes and ETFR cells (1×10^6 cells/sample) were pretreated with medium or stimulants at 37° C. for 30 minutes. After two washes with cold FACS buffer (DPBS, 1% FCS, 0.02% sodium azide, and 5 mM EDTA, pH7.4), the cells were blocked with 5% normal rat serum followed by incubation with a monoclonal anti-human FPR antibody or isotype matched IgG on ice for 30 min. After three washes with FACS buffer, FITC-labeled rat anti-mouse antibody (PharMingen) was applied and incubated on ice for 30 min. The cells were then washed twice with FACS buffer and analyzed immediately by flow cytometry (Becton Dickinson, San Jose, Calif.).
# [3] = test system: Akt; experiment: Phosphorylation of Akt in ETFR cells (Western blot); type: cell-based, rat
# Description: ETFR cells were plated in Petri dishes and cultured in DMEM at 37° C. in humidified 5% CO2 atmosphere for 48 h. After further culture in serum-free DMEM overnight, the cells were treated with stimulants for indicated time periods. The reaction was stopped by adding 1 ml ice-cold PBS, and the cells were lysed in 1×SDS lysis buffer (62.5 mM Tris-HCl, 2% w/v SDS, 10% glycerol, 50 mM DTT, pH 6.8) and harvested into tubes for sonication. Proteins (50 μg for each sample) were resolved by SDS-PAGE and transferred onto nitrocellulose membranes (Bio-Rad, Hercules, Calif.). The membranes were blocked for 2 h at room temperature in 3% non-fat milk prepared in Tris-buffered saline-T (10 mM Tris-HCl, pH 7.5, 150 mM NaCl, 0.1% Tween 20) and probed with anti-p-ERK1/2, p-p38 MAPK, or p-Akt (1:1000) at room temperature for 1-2 h or at 4° C. overnight. The membranes were then washed and incubated with horseradish peroxidase-conjugated secondary antibodies diluted in Tris-buffered saline-T for 1 h at room temperature. The immune complexes on the membranes were visualized using ECL reagents. Total ERK1/2, p38 MAPK, and Akt were visualized by stripping the same membrane and probing with antibodies against total ERK1/2, p38 MAPK, and Akt.
# [4] = test system: PKCα/β; experiment: PKCα/β translocation in ETFR cells; type: cell-based, rat; conditions: 100 nM fMLF, 10 μg/ml CaG or PMA 500 nM, 37° C. 10 min
# Description: ETFR cells were seeded on coverslips and cultured overnight in DMEM containing 1% FCS at 37° C. After further culture in FCS-free DMEM for 3 h, cells were treated with stimulants for indicated time periods at 37° C. and were then fixed in 4% paraformaldehyde for 5 min at room temperature. The cells were permeabilized with 0.2% Tween 20 for 30 min at 4° C. and the reaction was blocked with 5% goat normal serum for 15 min at room temperature. The rabbit anti-PKCα/β, δ, and ξ, antibodies (1:1000 in DPBS) were applied separately for 1 h at room temperature. After three rinses with DPBS, the cells were stained with FITC-labeled goat anti-rabbit secondary antibody (PharMingen, 1:1000 in DPBS) for 1 h at room temperature. The coverslips were mounted with an anti-fade, water-based mounting medium with Propidium Iodide (PI) (Vector Lab, Burlingamem, Calif.) and analyzed under a laser scanning confocal fluorescence microscope (Zeiss LSM510 NLO Meta, Jena, Germany). Excitation wavelengths 488 (for FITC) and 568 (for PI) nm were used to generate fluorescence emission in green and red, respectively.
substance,measurement,setting,value
"CaG: Cathepsin G, serine protease purified from neutrophil granules, purchased from Athens Research & Technology",concentration of maximal activity in monocyte migration,[1]; human monocytes,5 μg/ml and 200 nM
same,monocyte migration induced by stimulant,[1]; human monocytes,dose-dependently induced monocyte migration
same,concentration range potently chemotactic,[1]; monocytes,4 to 400 nM
same,attenuation of monocyte chemotaxis to fMLF after preincubation,"[1]; preincubated with CaG 10 μg/ml 30 min 37° C., low concentrations of fMLF",able to attenuate monocyte chemotaxis to low concentrations of fMLF
same,down-regulation of FPR from the cell surface,[2],"weaker, but significant ability of CaG to down-regulate FPR"
same,time to activation of Akt,[3],1 to 5 min
same,translocation of PKCα/β,[4],did not induce translocation of PKCα and β
